Assay results taken from the supplement of paper PMC10307832.

Experiments:
Test in all cases: relative viability (nuclei count vs DMSO), 5 days (fraction); higher = more cells survive
ChaGo-K-1 = test system: ChaGo-K-1
How it was run: (§1)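 Five library-drug doses in √10 steps were combined with a fixed anchor-drug dose, or a single drug was given alone, by pin tool to lung cancer cell lines in 1536-well plates the day after seeding. Nuclei were stained and counted after 5 days. Relative viability is the nuclei count in treated wells over that in vehicle wells, taken as the median of duplicate plates.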

EMC-BAC-2 = test system: EMC-BAC-2
How it was run: as §1

EPLC-272H = test system: EPLC-272H
How it was run: as §1

HCC-366 = test system: HCC-366
How it was run: as §1

HCC-44 = test system: HCC-44
How it was run: as §1

HCC-78 = test system: HCC-78
How it was run: as §1

HCC-827 = test system: HCC-827
How it was run: as §1

LCLC-103H = test system: LCLC-103H
How it was run: as §1

LK-2 = test system: LK-2
How it was run: as §1

LOU-NH91 = test system: LOU-NH91
How it was run: as §1

LU99A = test system: LU99A
How it was run: as §1

LXF-289 = test system: LXF-289
How it was run: as §1

NCI-H1563 = test system: NCI-H1563
How it was run: as §1

NCI-H1666 = test system: NCI-H1666
How it was run: as §1

NCI-H1975 = test system: NCI-H1975
How it was run: as §1

NCI-H2085 = test system: NCI-H2085
How it was run: as §1

NCI-H2126 = test system: NCI-H2126
How it was run: as §1

NCI-H23 = test system: NCI-H23
How it was run: as §1

NCI-H2405 = test system: NCI-H2405
How it was run: as §1

NCI-H3122 = test system: NCI-H3122
How it was run: as §1

RERF-LC-KJ = test system: RERF-LC-KJ
How it was run: as §1

SK-LU-1 = test system: SK-LU-1
How it was run: as §1

SW 1573 = test system: SW 1573
How it was run: as §1

Molecule `COc1cc(N2CCC(C(N)=O)CC2)ccc1Nc1nc(N)c(Cl)c(Nc2ccccc2S(=O)(=O)C(C)C)n1` [HG-5-88-01] + C[C@@H](Oc1cc(-c2cnn(C3CCNCC3)c2)cnc1N)c1c(Cl)ccc(F)c1Cl [Crizotinib] (partner 1 µM) has a relative viability (ChaGo-K-1; first compound 0.04 µM) of 1.12, a relative viability (ChaGo-K-1; first compound 0.1265 µM) of 1.14 and a relative viability (ChaGo-K-1; first compound 0.4 µM) of 1.03. It also gave a relative viability (ChaGo-K-1; first compound 1.265 µM) of 0.888, a relative viability (ChaGo-K-1; first compound 4 µM) of 0.787 and a relative viability (EMC-BAC-2; first compound 0.04 µM) of 0.776. It also gave a relative viability (EMC-BAC-2; first compound 0.1265 µM) of 0.748, a relative viability (EMC-BAC-2; first compound 0.4 µM) of 0.769 and a relative viability (EMC-BAC-2; first compound 1.265 µM) of 0.77. For the same molecule, the relative viability (EMC-BAC-2; first compound 4 µM) was 0.667, the relative viability (EPLC-272H; first compound 0.04 µM) was 0.972 and the relative viability (EPLC-272H; first compound 0.1265 µM) was 0.909. The relative viability (EPLC-272H; first compound 0.4 µM) was 0.964, the relative viability (EPLC-272H; first compound 1.265 µM) was 0.704 and the relative viability (EPLC-272H; first compound 4 µM) was 0.0745. For the same molecule, the relative viability (HCC-366; first compound 0.04 µM) was 0.642, the relative viability (HCC-366; first compound 0.1265 µM) was 0.487 and the relative viability (HCC-366; first compound 0.4 µM) was 0.468. For the same molecule, the relative viability (HCC-366; first compound 1.265 µM) was 0.441, the relative viability (HCC-366; first compound 4 µM) was 0.198 and the relative viability (HCC-44; first compound 0.04 µM) was 0.777. The relative viability (HCC-44; first compound 0.1265 µM) was 0.791, the relative viability (HCC-44; first compound 0.4 µM) was 0.797 and the relative viability (HCC-44; first compound 1.265 µM) was 0.611. It also gave a relative viability (HCC-44; first compound 4 µM) of 0.489, a relative viability (HCC-78; first compound 0.04 µM) of 0.37 and a relative viability (HCC-78; first compound 0.1265 µM) of 0.319. It also gave a relative viability (HCC-78; first compound 0.4 µM) of 0.31, a relative viability (HCC-78; first compound 1.265 µM) of 0.185 and a relative viability (HCC-78; first compound 4 µM) of 0.275. It also gave a relative viability (HCC-827; first compound 0.04 µM) of 0.946, a relative viability (HCC-827; first compound 0.1265 µM) of 0.917 and a relative viability (HCC-827; first compound 0.4 µM) of 0.94. It also gave a relative viability (HCC-827; first compound 1.265 µM) of 0.831, a relative viability (HCC-827; first compound 4 µM) of 0.392 and a relative viability (LCLC-103H; first compound 0.04 µM) of 0.987. For the same molecule, the relative viability (LCLC-103H; first compound 0.1265 µM) was 0.955, the relative viability (LCLC-103H; first compound 0.4 µM) was 0.95 and the relative viability (LCLC-103H; first compound 1.265 µM) was 0.923. The relative viability (LCLC-103H; first compound 4 µM) was 0.985, the relative viability (LK-2; first compound 0.04 µM) was 0.24 and the relative viability (LK-2; first compound 0.1265 µM) was 0.227. The relative viability (LK-2; first compound 0.4 µM) was 0.234, the relative viability (LK-2; first compound 1.265 µM) was 0.249 and the relative viability (LK-2; first compound 4 µM) was 0.21. For the same molecule, the relative viability (LOU-NH91; first compound 0.04 µM) was 0.745, the relative viability (LOU-NH91; first compound 0.1265 µM) was 0.737 and the relative viability (LOU-NH91; first compound 0.4 µM) was 0.671. The relative viability (LOU-NH91; first compound 1.265 µM) was 0.494, the relative viability (LOU-NH91; first compound 4 µM) was 0.566 and the relative viability (LU99A; first compound 0.04 µM) was 0.554. For the same molecule, the relative viability (LU99A; first compound 0.1265 µM) was 0.615, the relative viability (LU99A; first compound 0.4 µM) was 0.511 and the relative viability (LU99A; first compound 1.265 µM) was 0.491. It also gave a relative viability (LU99A; first compound 4 µM) of 0.423, a relative viability (LXF-289; first compound 0.04 µM) of 0.804 and a relative viability (LXF-289; first compound 0.1265 µM) of 0.797. It also gave a relative viability (LXF-289; first compound 0.4 µM) of 0.851, a relative viability (LXF-289; first compound 1.265 µM) of 0.831 and a relative viability (LXF-289; first compound 4 µM) of 0.827. For the same molecule, the relative viability (NCI-H1563; first compound 0.04 µM) was 0.917, the relative viability (NCI-H1563; first compound 0.1265 µM) was 0.88 and the relative viability (NCI-H1563; first compound 0.4 µM) was 0.832. The relative viability (NCI-H1563; first compound 1.265 µM) was 0.806, the relative viability (NCI-H1563; first compound 4 µM) was 0.854 and the relative viability (NCI-H1666; first compound 0.04 µM) was 1.01. It also gave a relative viability (NCI-H1666; first compound 0.1265 µM) of 1.1, a relative viability (NCI-H1666; first compound 0.4 µM) of 0.941 and a relative viability (NCI-H1666; first compound 1.265 µM) of 0.794. It also gave a relative viability (NCI-H1666; first compound 4 µM) of 0.594, a relative viability (NCI-H1975; first compound 0.04 µM) of 1.03 and a relative viability (NCI-H1975; first compound 0.1265 µM) of 1.03. It also gave a relative viability (NCI-H1975; first compound 0.4 µM) of 0.821, a relative viability (NCI-H1975; first compound 1.265 µM) of 0.794 and a relative viability (NCI-H1975; first compound 4 µM) of 0.334. The relative viability (NCI-H2085; first compound 0.04 µM) was 0.734, the relative viability (NCI-H2085; first compound 0.1265 µM) was 0.856 and the relative viability (NCI-H2085; first compound 0.4 µM) was 0.873. It also gave a relative viability (NCI-H2085; first compound 1.265 µM) of 0.694, a relative viability (NCI-H2085; first compound 4 µM) of 0.63 and a relative viability (NCI-H2126; first compound 0.04 µM) of 1.02. For the same molecule, the relative viability (NCI-H2126; first compound 0.1265 µM) was 1.09, the relative viability (NCI-H2126; first compound 0.4 µM) was 0.976 and the relative viability (NCI-H2126; first compound 1.265 µM) was 0.968. It also gave a relative viability (NCI-H2126; first compound 4 µM) of 1.01, a relative viability (NCI-H23; first compound 0.04 µM) of 0.542 and a relative viability (NCI-H23; first compound 0.1265 µM) of 0.43. For the same molecule, the relative viability (NCI-H23; first compound 0.4 µM) was 0.481, the relative viability (NCI-H23; first compound 1.265 µM) was 0.471 and the relative viability (NCI-H23; first compound 4 µM) was 0.26. It also gave a relative viability (NCI-H2405; first compound 0.04 µM) of 0.841, a relative viability (NCI-H2405; first compound 0.1265 µM) of 0.821 and a relative viability (NCI-H2405; first compound 0.4 µM) of 0.796. The relative viability (NCI-H2405; first compound 1.265 µM) was 0.599, the relative viability (NCI-H2405; first compound 4 µM) was 0.901 and the relative viability (NCI-H3122; first compound 0.04 µM) was 0.271. It also gave a relative viability (NCI-H3122; first compound 0.1265 µM) of 0.264, a relative viability (NCI-H3122; first compound 0.4 µM) of 0.292 and a relative viability (NCI-H3122; first compound 1.265 µM) of 0.233. The relative viability (NCI-H3122; first compound 4 µM) was 0.173, the relative viability (RERF-LC-KJ; first compound 0.04 µM) was 0.816 and the relative viability (RERF-LC-KJ; first compound 0.1265 µM) was 0.816. For the same molecule, the relative viability (RERF-LC-KJ; first compound 0.4 µM) was 0.81, the relative viability (RERF-LC-KJ; first compound 1.265 µM) was 0.782 and the relative viability (RERF-LC-KJ; first compound 4 µM) was 0.535. The relative viability (SK-LU-1; first compound 0.04 µM) was 1.04, the relative viability (SK-LU-1; first compound 0.1265 µM) was 0.793 and the relative viability (SK-LU-1; first compound 0.4 µM) was 0.867. For the same molecule, the relative viability (SK-LU-1; first compound 1.265 µM) was 0.845, the relative viability (SK-LU-1; first compound 4 µM) was 0.595 and the relative viability (SW 1573; first compound 0.04 µM) was 0.806. The relative viability (SW 1573; first compound 0.1265 µM) was 0.848, the relative viability (SW 1573; first compound 0.4 µM) was 0.907 and the relative viability (SW 1573; first compound 1.265 µM) was 0.568. For the same molecule, the relative viability (SW 1573; first compound 4 µM) was 0.475.
